Test results published in patent publication US8383581B2, “Short-chain peptides as parathyroid hormone (PTH) receptor agonist” (Cadila Healthcare Limited, priority 2009, dated 2013).
Where a SMILES comes first, the peptide text is derived from it. [ ]: non-standard residue; d: D form. ξ: configuration not given here. ξBip(2'-Et-4'-OMe) = CCc1cc(OC)ccc1-c1ccc(CC(N)C(=O)O)cc1; Arg(NO2) = N=C(NCCC[C@H](N)C(=O)O)N[N+](=O)[O-]; ξαMePhe(2,6-F2) = CC(N)(Cc1c(F)cccc1F)C(=O)O; ξαMePhe(2-F) = CC(N)(Cc1ccccc1F)C(=O)O; hArg = N=C(N)NCCCC[C@H](N)C(=O)O; hCit = NC(=O)NCCCC[C@H](N)C(=O)O; Cit = NC(=O)NCCC[C@H](N)C(=O)O; ξhhPhe = NC(CCCc1ccccc1)C(=O)O; Nle = CCCC[C@H](N)C(=O)O; Orn = NCCC[C@H](N)C(=O)O; Ac5c = NC1(C(=O)O)CCCC1; Ac3c = NC1(C(=O)O)CC1; Aib = CC(C)(N)C(=O)O

Tested on: ovariectomised (OVX) rats
Assay: In vivo anti-osteoporosis activity testing in OVX rat model (serum calcium, phosphate, bone parameters)
Set-up: species or system Female Wistar Rats
Settings: po
Source text: c) In Vivo Anti-Osteoporosis Activity Testing in OVX Rat Model: The ovariectomised (OVX) rats were used to study anti-osteoporosis activity of test compounds (short-chain peptides) in vivo. The OVX rats develop osteopenia due to ovarian hormone deficiency. Osteopenia can be detected as early as 14 days post OVX, increase for the next 100 days and then stabilised (Wronski T. J., et al., Calcif. Tissue Int., 43(3), 1988, 179-183). Detailed Study Protocol to Evaluate the Effects of Anabolic Therapy on Bone Markers and Histomorphometry in OVX Animals: 10 to 11 weeks old Female Wistar Rats (150-200 g) were used. The animals were kept in individually ventilated cages in a room with controlled temperature (23°±3° C.), lighting (12:12 h light-dark cycle) and relative humidity (55±10%). Animals had free access to standard rat chow and water. Protocol for use of animals for conducting this study has been reviewed and approved by Institutional Animal Ethics Committee (IAEC). The animals were marked with picric acid for identification and acclimatized to experimental room conditions for 2 days prior to initiation of the study. For the induction of osteoporosis, rats were bilaterally ovariectomised under anesthesia. For Ovariectomy, Incision was made on dorsa-lateral side near lumbar region of animal. After that, ovary was excised and the veins were tied with ligature before removing ovary to prevent blood loss. Then incision was sutured back with ligature. After Bilateral ovariectomy, animals were allowed to rest for 4 weeks. They were then divided into different groups (n=9) based on their body weight. The groups consisted of a no treatment control, PTH as standard and one or two groups of test compounds (short-chain peptides). The treatment was given for the duration of 6 weeks. At the last day of treatment animals were kept overnight in metabolic cages under fasting for the collection of Urine. Next day, blood was collected after 24 hours of last dosing and animals were sacrificed. Changes in biochemical parameters and bone turnover parameters (Increase in serum Calcium and decrease in Phosphate levels, Acid Phosphatase and TRAP) were evaluated in the urine and serum. After sacrificing, intact femur and tibial bones are removed and cleaned from adherent tissues, muscles and tendons; weighed and collected in formal saline (10% formaldehyde solution). Lumbar vertebra (L5) was excised, carefully cleaned and collected in formal saline. Femur, tibia and Lumbar vertebra-5 (L5) were later processed for histomorphometric evaluation (Zhang L., et al., Tohoku J Exp Med., 1998, 186(2), 131-41; Tanizawa T., et al., Toxicol Lett., 1998, 102, 399-403).

## CCCC[C@H](NC(=O)C(C)(Cc1c(F)cccc1F)NC(=O)[C@H](CCC(N)=O)NC(=O)[C@@H](NC(=O)[C@H](CCC(=O)O)NC(=O)C(C)(C)NC(=O)[C@@H](NC(=O)C(C)(C)N)C(C)C)[C@@H](C)CC)C(=O)N[C@@H](Cc1c[nH]cn1)C(=O)N[C@@H](CCC(N)=O)C(=O)N[C@@H](CCCN)C(=O)N[C@@H](C)C(=O)NC(C)(Cc1c(F)cccc1F)C(=O)NC(C)(Cc1ccccc1F)C(N)=O (stereo partly drawn) [Seq. ID. 317] (H-[Aib]V[Aib]EIQ[ξαMePhe(2,6-F2)][Nle]HQ[Orn]A[ξαMePhe(2,6-F2)][ξαMePhe(2-F)]-NH2)
3 mg/kg
  % decrease in serum PO4 Levels (mg/dl) vs control: 93%
  % increase in serum Ca^2+ Levels (mg/dl) vs control: 102%

## CCCC[C@H](NC(=O)C(C)(Cc1c(F)cccc1F)NC(=O)[C@H](CCC(N)=O)NC(=O)[C@@H](NC(=O)[C@H](CCC(=O)O)NC(=O)C(C)(C)NC(=O)[C@@H](NC(=O)C1(N)CCCC1)C(C)C)[C@@H](C)CC)C(=O)N[C@@H](Cc1c[nH]cn1)C(=O)N[C@@H](CCC(N)=O)C(=O)N[C@@H](CCCNC(N)=O)C(=O)N[C@@H](C)C(=O)NC(C)(Cc1c(F)cccc1F)C(=O)NC(C)(Cc1c(F)cccc1F)C(N)=O (stereo partly drawn) [Seq. ID. 391] (H-[Ac5c]V[Aib]EIQ[ξαMePhe(2,6-F2)][Nle]HQ[Cit]A[ξαMePhe(2,6-F2)][ξαMePhe(2,6-F2)]-NH2)
0.1 mg/kg
  % decrease in serum PO4 Levels (mg/dl) vs control: 59%
  % increase in serum Ca^2+ Levels (mg/dl) vs control: 82%

## CCCC[C@H](NC(=O)C(C)(Cc1c(F)cccc1F)NC(=O)[C@H](CCC(N)=O)NC(=O)[C@@H](NC(=O)[C@H](CCC(=O)O)NC(=O)C(C)(C)NC(=O)[C@@H](NC(=O)C1(N)CCCC1)C(C)C)[C@@H](C)CC)C(=O)N[C@@H](Cc1c[nH]cn1)C(=O)N[C@@H](CCC(N)=O)C(=O)N[C@@H](CCCNC(N)=O)C(=O)N[C@@H](C)C(=O)N[C@@H](CCCNC(=N)N[N+](=O)[O-])C(=O)NC(C)(Cc1c(F)cccc1F)C(N)=O (stereo partly drawn) [Seq. ID. 407] (H-[Ac5c]V[Aib]EIQ[ξαMePhe(2,6-F2)][Nle]HQ[Cit]A[Arg(NO2)][ξαMePhe(2,6-F2)]-NH2)
0.03 mg/kg
  % decrease in serum PO4 Levels (mg/dl) vs control: 81%
  % increase in serum Ca^2+ Levels (mg/dl) vs control: 77%

## CCCC[C@H](NC(=O)C(C)(Cc1c(F)cccc1F)NC(=O)[C@H](CCC(N)=O)NC(=O)[C@@H](NC(=O)[C@H](CCC(=O)O)NC(=O)C(C)(C)NC(=O)[C@@H](NC(=O)C(C)(C)N)C(C)C)[C@@H](C)CC)C(=O)N[C@@H](Cc1c[nH]cn1)C(=O)N[C@@H](CCC(N)=O)C(=O)N[C@@H](CCCCNC(N)=O)C(=O)N[C@@H](C)C(=O)N[C@@H](CCCNC(=N)N[N+](=O)[O-])C(=O)NC(C)(Cc1c(F)cccc1F)C(N)=O (stereo partly drawn) [Seq. ID. 469] (H-[Aib]V[Aib]EIQ[ξαMePhe(2,6-F2)][Nle]HQ[hCit]A[Arg(NO2)][ξαMePhe(2,6-F2)]-NH2)
0.01 mg/kg
  % decrease in serum PO4 Levels (mg/dl) vs control: 65%
  % increase in serum Ca^2+ Levels (mg/dl) vs control: 43%

## CCCC[C@H](NC(=O)C(C)(Cc1c(F)cccc1F)NC(=O)[C@H](CCC(N)=O)NC(=O)[C@@H](NC(=O)[C@H](CCC(=O)O)NC(=O)C(C)(C)NC(=O)[C@@H](NC(=O)C1(N)CCCC1)C(C)C)[C@@H](C)CC)C(=O)N[C@@H](Cc1c[nH]cn1)C(=O)N[C@@H](CCC(N)=O)C(=O)NC(C)(Cc1c(F)cccc1F)C(=O)N[C@@H](C)C(=O)NC(C)(Cc1c(F)cccc1F)C(=O)NC(C)(Cc1ccccc1F)C(N)=O (stereo partly drawn) [Seq. ID. 511] (H-[Ac5c]V[Aib]EIQ[ξαMePhe(2,6-F2)][Nle]HQ[ξαMePhe(2,6-F2)]A[ξαMePhe(2,6-F2)][ξαMePhe(2-F)]-NH2)
1 mg/kg
  % decrease in serum PO4 Levels (mg/dl) vs control: 88%
  % increase in serum Ca^2+ Levels (mg/dl) vs control: 84%

## CCCC[C@H](NC(=O)C(C)(Cc1ccccc1F)NC(=O)[C@H](CCC(N)=O)NC(=O)[C@@H](NC(=O)[C@H](CCC(=O)O)NC(=O)C(C)(C)NC(=O)[C@@H](NC(=O)C1(N)CCCC1)C(C)C)[C@@H](C)CC)C(=O)N[C@@H](Cc1c[nH]cn1)C(=O)N[C@@H](CCC(N)=O)C(=O)NC(C)(C)C(=O)NC(C)(C)C(=O)NC(C)(C)C(=O)NC(C)(Cc1ccccc1F)C(N)=O (stereo partly drawn) [Seq. ID. 556] (H-[Ac5c]V[Aib]EIQ[ξαMePhe(2-F)][Nle]HQ[Aib][Aib][Aib][ξαMePhe(2-F)]-NH2)
5 mg/kg
  % decrease in serum PO4 Levels (mg/dl) vs control: 84%
  % increase in serum Ca^2+ Levels (mg/dl) vs control: 77%

## CCCC[C@H](NC(=O)C(C)(Cc1c(F)cccc1F)NC(=O)[C@H](CCC(N)=O)NC(=O)[C@@H](NC(=O)[C@H](CCC(=O)O)NC(=O)C(C)(C)NC(=O)[C@@H](NC(=O)C1(N)CCCC1)C(C)C)[C@@H](C)CC)C(=O)N[C@@H](Cc1c[nH]cn1)C(=O)N[C@@H](CCC(N)=O)C(=O)NC(C)(C)C(=O)N[C@@H](C)C(=O)N[C@@H](CCCNC(=N)N[N+](=O)[O-])C(=O)NC(C)(Cc1c(F)cccc1F)C(N)=O (stereo partly drawn) [Seq. ID. 599] (H-[Ac5c]V[Aib]EIQ[ξαMePhe(2,6-F2)][Nle]HQ[Aib]A[Arg(NO2)][ξαMePhe(2,6-F2)]-NH2)
0.03 mg/kg
  % decrease in serum PO4 Levels (mg/dl) vs control: 90%
  % increase in serum Ca^2+ Levels (mg/dl) vs control: 110%

## CCc1cc(OC)ccc1-c1ccc(CC(NC(=O)[C@H](CCCCN)NC(=O)[C@H](C)NC(=O)[C@H](CCCCNC(=N)N)NC(=O)[C@H](CCC(N)=O)NC(=O)[C@H](Cc2c[nH]cn2)NC(=O)[C@H](CCSC)NC(=O)[C@H](CC(C)C)NC(=O)[C@H](CCC(N)=O)NC(=O)[C@@H](NC(=O)[C@H](CCC(=O)O)NC(=O)C2(NC(=O)[C@@H](NC(=O)C(C)(C)N)C(C)C)CC2)[C@@H](C)CC)C(=O)NC(CCCc2ccccc2)C(N)=O)cc1 (stereo partly drawn) [Seq. ID. 607] (H-[Aib]V[Ac3c]EIQLMHQ[hArg]AK[ξBip(2'-Et-4'-OMe)][ξhhPhe]-NH2)
0.01 mg/kg
  % decrease in serum PO4 Levels (mg/dl) vs control: 88%
  % increase in serum Ca^2+ Levels (mg/dl) vs control: 78%

## CCCC[C@H](NC(=O)[C@H](CC(C)C)NC(=O)[C@H](CCC(N)=O)NC(=O)[C@@H](NC(=O)[C@H](CCC(=O)O)NC(=O)C(C)(C)NC(=O)[C@@H](NC(=O)C1(N)CC1)C(C)C)[C@@H](C)CC)C(=O)N[C@@H](Cc1c[nH]cn1)C(=O)N[C@@H](CCC(N)=O)C(=O)N[C@@H](CCCCNC(=N)N)C(=O)N[C@@H](C)C(=O)N[C@@H](CCCCN)C(=O)NC(Cc1ccc(-c2ccc(OC)cc2CC)cc1)C(N)=O (stereo partly drawn) [Seq. ID. 649] (H-[Ac3c]V[Aib]EIQL[Nle]HQ[hArg]AK[ξBip(2'-Et-4'-OMe)]-NH2)
2 mg/kg
  % decrease in serum PO4 Levels (mg/dl) vs control: 82%
  % increase in serum Ca^2+ Levels (mg/dl) vs control: 86%

## CCCC[C@H](NC(=O)[C@H](CC(C)C)NC(=O)[C@H](CCC(N)=O)NC(=O)[C@@H](NC(=O)[C@H](CCC(=O)O)NC(=O)C(C)(C)NC(=O)[C@@H](NC(=O)C1(N)CCCC1)C(C)C)[C@@H](C)CC)C(=O)N[C@@H](Cc1c[nH]cn1)C(=O)N[C@@H](CCC(N)=O)C(=O)N[C@@H](CCCCNC(=N)N)C(=O)N[C@@H](C)C(=O)N[C@@H](CCCNC(=N)N[N+](=O)[O-])C(=O)NC(Cc1ccc(-c2ccc(OC)cc2CC)cc1)C(=O)NC(CCCc1ccccc1)C(N)=O (stereo partly drawn) [Seq. ID. 686] (H-[Ac5c]V[Aib]EIQL[Nle]HQ[hArg]A[Arg(NO2)][ξBip(2'-Et-4'-OMe)][ξhhPhe]-NH2)
3 mg/kg
  % decrease in serum PO4 Levels (mg/dl) vs control: 80%
  % increase in serum Ca^2+ Levels (mg/dl) vs control: 84%

## CCCC[C@H](NC(=O)[C@H](CC(C)C)NC(=O)[C@H](CCC(N)=O)NC(=O)[C@@H](NC(=O)[C@H](CCC(=O)O)NC(=O)C(C)(C)NC(=O)[C@@H](NC(=O)C(C)(C)N)C(C)C)[C@@H](C)CC)C(=O)N[C@@H](Cc1c[nH]cn1)C(=O)N[C@@H](CCC(N)=O)C(=O)N[C@@H](CCCCNC(=N)N)C(=O)NC(C)(C)C(=O)NC(C)(C)C(=O)NC(Cc1ccc(-c2ccc(OC)cc2CC)cc1)C(=O)NC(CCCc1ccccc1)C(N)=O (stereo partly drawn) [Seq. ID. 742] (H-[Aib]V[Aib]EIQL[Nle]HQ[hArg][Aib][Aib][ξBip(2'-Et-4'-OMe)][ξhhPhe]-NH2)
0.1 mg/kg
  % decrease in serum PO4 Levels (mg/dl) vs control: 92%
  % increase in serum Ca^2+ Levels (mg/dl) vs control: 89%

## CCCC[C@H](NC(=O)[C@H](CC(C)C)NC(=O)[C@H](CCC(N)=O)NC(=O)[C@@H](NC(=O)[C@H](CCC(=O)O)NC(=O)C(C)(C)NC(=O)[C@@H](NC(=O)C1(N)CCCC1)C(C)C)[C@@H](C)CC)C(=O)N[C@@H](Cc1c[nH]cn1)C(=O)N[C@@H](CCC(N)=O)C(=O)N[C@@H](CCCCNC(N)=O)C(=O)N[C@@H](C)C(=O)N[C@@H](CCCNC(=N)N)C(=O)NC(Cc1ccc(-c2ccc(OC)cc2CC)cc1)C(=O)NC(CCCc1ccccc1)C(N)=O (stereo partly drawn) [Seq. ID. 779] (H-[Ac5c]V[Aib]EIQL[Nle]HQ[hCit]AR[ξBip(2'-Et-4'-OMe)][ξhhPhe]-NH2)
1 mg/kg
  % decrease in serum PO4 Levels (mg/dl) vs control: 56%
  % increase in serum Ca^2+ Levels (mg/dl) vs control: 67%
